According to ChEMBL document CHEMBL1201862, “PubChem BioAssay data set” (2004):
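Step 1: Grow cells in 96-well plates. Step 2: Expose to compound for 48 hours at 5 concentrations. Step 3: Interpolate endpoints linearly; if unreached, use highest concentration. GI50: concentration for 50% inhibition of growth.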 The source made the active and inactive calls. Cut-off read from the data, not from the text of the source: active = GI50 up to about 1.1 µM and inactive = higher.

Experiments:
Test in all cases: NCI-60 cell line screen, 48 h
NCI-H226 = system: NCI-H226
SW-620 = system: SW-620
M14 = system: M14
MOLT-4 = system: MOLT-4
LOX IMVI = system: LOX IMVI
UACC-257 = system: UACC-257
SN12C = system: SN12C
LXFL 529 = system: LXFL 529
ACHN = system: ACHN
NCI-H23 = system: NCI-H23
OVCAR-5 = system: OVCAR-5
A549 = system: A549
CAKI-1 = system: CAKI-1
NCI-H522 = system: NCI-H522
KM12 = system: KM12
IGROV-1 = system: IGROV-1
RPMI-8226 = system: RPMI-8226
U-251 = system: U-251
NCI/ADR-RES = system: NCI/ADR-RES
DU-145 = system: DU-145

Measured: GI50

CC(=O)NC(ON1C(=O)COc2ccccc21)C(Cl)(Cl)Cl (stereo unspecified)
inactive: NCI-H226 33.4 µM | SW-620 > 100 µM | M14 > 100 µM | MOLT-4 > 100 µM | LOX IMVI > 100 µM | UACC-257 > 100 µM | SN12C > 100 µM | LXFL 529 > 100 µM | ACHN > 100 µM | NCI-H23 > 100 µM | OVCAR-5 > 100 µM | A549 > 100 µM | CAKI-1 > 100 µM | NCI-H522 > 100 µM | KM12 > 100 µM | IGROV-1 > 100 µM | RPMI-8226 > 100 µM | U-251 > 100 µM

CC1(C)OC(COCCOCCCCCO)C(COCCOCCCCCO)O1 (stereo unspecified)
inactive: NCI-H226 > 100 µM | SW-620 > 100 µM | M14 > 100 µM | MOLT-4 > 100 µM | LOX IMVI > 100 µM | UACC-257 > 100 µM | SN12C > 100 µM | LXFL 529 > 100 µM | ACHN > 100 µM | NCI-H23 > 100 µM | OVCAR-5 > 100 µM | A549 > 100 µM | CAKI-1 > 100 µM | NCI-H522 > 100 µM | KM12 > 100 µM | IGROV-1 > 100 µM | RPMI-8226 > 100 µM | U-251 > 100 µM

COc1ccc(NC(=O)NS(=O)(=O)c2ccc(C)cc2)nn1
inactive: NCI-H226 > 100 µM | SW-620 > 100 µM | M14 > 100 µM | MOLT-4 > 100 µM | LOX IMVI > 100 µM | UACC-257 > 100 µM | SN12C > 100 µM | LXFL 529 > 100 µM | ACHN > 100 µM | NCI-H23 > 100 µM | OVCAR-5 > 100 µM | A549 > 100 µM | CAKI-1 > 100 µM | NCI-H522 > 100 µM | KM12 > 100 µM | IGROV-1 > 100 µM | RPMI-8226 > 100 µM | U-251 > 100 µM

COc1ccc(C(C#N)NNC(=O)Cc2ccccc2)cc1OC (stereo unspecified)
inactive: NCI-H226 > 100 µM | SW-620 > 100 µM | M14 > 100 µM | MOLT-4 > 100 µM | LOX IMVI > 100 µM | UACC-257 > 100 µM | SN12C > 100 µM | LXFL 529 > 100 µM | ACHN > 100 µM | NCI-H23 > 100 µM | OVCAR-5 > 100 µM | A549 > 100 µM | CAKI-1 > 100 µM | NCI-H522 > 100 µM | KM12 > 100 µM | IGROV-1 > 100 µM | RPMI-8226 > 100 µM | U-251 > 100 µM

COC(=O)/C(=N/NC(=O)C[N+](C)(C)C)C(C(=O)OC)C(=O)C(=O)Nc1ccc(F)cc1 (stereo unspecified)
inactive: NCI-H226 > 100 µM | SW-620 > 100 µM | M14 > 100 µM | MOLT-4 > 100 µM | LOX IMVI > 100 µM | UACC-257 > 100 µM | SN12C > 100 µM | LXFL 529 > 100 µM | ACHN > 100 µM | NCI-H23 > 100 µM | OVCAR-5 > 100 µM | A549 > 100 µM | CAKI-1 > 100 µM | NCI-H522 > 100 µM | KM12 > 100 µM | IGROV-1 > 100 µM | RPMI-8226 > 100 µM | U-251 > 100 µM

Cc1ccc(S(=O)(=O)SCc2ccccc2)cc1
inactive: NCI-H226 21 µM | SW-620 4.31 µM | M14 17.9 µM | MOLT-4 2.32 µM | LOX IMVI 18.9 µM | UACC-257 31.9 µM | SN12C 20.8 µM | LXFL 529 14.3 µM | ACHN 32.8 µM | NCI-H23 19 µM | OVCAR-5 33.2 µM | A549 35.8 µM | CAKI-1 34.9 µM | NCI-H522 7.91 µM | KM12 25.7 µM | IGROV-1 39.1 µM | RPMI-8226 10.1 µM | U-251 27 µM

O=C(O)CNCc1c2ccccc2nc2ccccc12
inactive: NCI-H226 52.1 µM | SW-620 26.4 µM | M14 47.6 µM | MOLT-4 6.27 µM | LOX IMVI 28.3 µM | UACC-257 34.1 µM | SN12C 44.4 µM | LXFL 529 26.5 µM | NCI/ADR-RES 26.5 µM | ACHN 31.1 µM | NCI-H23 35.6 µM | OVCAR-5 > 85.9 µM | A549 43.4 µM | CAKI-1 35.7 µM | DU-145 > 100 µM | NCI-H522 22 µM | KM12 32.3 µM | IGROV-1 45.9 µM | RPMI-8226 8.43 µM | U-251 60 µM

C[C@]12CCC[C@H](OC=O)C1(O)C[C@H](C(=O)O)CC2 (stereo partly specified)
inactive: NCI-H226 > 100 µM | SW-620 > 100 µM | M14 > 100 µM | MOLT-4 > 100 µM | LOX IMVI > 100 µM | UACC-257 > 100 µM | SN12C > 100 µM | LXFL 529 > 100 µM | ACHN > 100 µM | NCI-H23 > 100 µM | OVCAR-5 > 100 µM | A549 > 100 µM | CAKI-1 > 100 µM | NCI-H522 > 100 µM | KM12 > 100 µM | IGROV-1 > 100 µM | RPMI-8226 > 100 µM | U-251 > 100 µM
